Read-outs that look alike come from different tables or passages of the source.
Tests used:
Type in all cases: in vivo
[1] = system: brown rice planthoppers (Nilaparavata lugens); experiment: Test Example 7: mortality and residual effect on brown rice planthoppers on sprayed potted rice plants; conditions: Oryza sativa, 24 h
Procedure: The emulsifiable concentrates of the following compounds and control compounds obtained according to Formulation example 2 were each diluted with water one thousand times (corresponding to 100 ppm) and each of thus prepared solutions was sprayed at the rate of 20 ml/2 pots to the rice plant seedlings planted in Wagner pots having a surface area of one ten thousandth are. After air-drying, the threated plants were covered with the iron wire cages, and about 15 adults of brown rice planthoppers (Nilaparavata lugens) were liberated thereto. Further, about 15 adults thereof were also liberated thereto 4 days after the application to examine the residual effects. Twenty four hours after each liberation, the dead and alive adults were examined to calculate the mortality.

[2] = system: common mosquito (Culex pipiens pallens); experiment: Test Example 1: mortality of larvae and inhibition of emergence of common mosquito; conditions: for Inhibitory ratio of emergence: 3.5 ppm, counted when all mosquitoes of no treatment group had emerged; for mortality at 3.5 ppm: Culex pipiens, 24 h, last instar larvae, after one day
Procedure: The emulsifiable concentrates of the following present compounds obtained according to Formulation example 2 were each diluted with water so as to obtain respective aqueous solutions containing 3.5 ppm of said compounds, respectively. One hundred ml of thus diluted aqueous solutions were poured into respective polyethylene cups of 180 ml volume, and 20 of the last instar larvae of common mosquito (Culex pipiens pallens) were liberated thereto. After one day, the dead or alive of the larvae were examined. Thereafter, the feed was added to respective cups and the number of emerged mosquitoes of the respective cups was counted when all the mosquitoes of no treatment group had […] to calculate the inhibitory ratios of the emergence. The mortality and the inhibitory ratio of the emergence are shown according to the following three criteria: mortality: A; 90% or more, […] inhibitory: A; 90% or more, ratio of emergence B; less than 90% to 80% C; less than 80%.

[3] = system: carmine spider mite (Tetranychus cinnabarinus); experiment: Test Example 8: degree of damage of kidney bean plant by carmine spider mite; design: key: -: No damage is observed.; +: Slight damage is observed.; ++: The same damage as in the untreated plot is observed; conditions: 500 ppm, sprayed 15 ml/pot plus 2 ml to soil; after 8 days; 25° C.
Procedure: The female adults of carmine spider mite (Tetranychus cinnabarinus) were put at a rate of 10 adults/leaf on the leaves of potted kidney bean (at the primordial leaf stage) which had elapsed 7 days after sowing, and placed in a constant-temperature room kept at 25° C. After 6 days, the 200-fold aqueous dilute solutions (corresponding to 500 ppm), prepared from the emulsifiable concentrates of the following present compounds and control compounds prepared according to Formulation example 2, were each sprayed at a rate of 15 ml/pot on a turn table. At the same time, the soil in the pot was treated with 2 ml of each aqueous solution. After 8 days, the degree of damage of the plant by the mite was examined.
-: No damage is observed.
+: Slight damage is observed.
++: The same damage as in the untreated plot is observed.

[4] = read-out: Mortality (%) liberated 4 days after application
[5] = read-out: Mortality (%) liberated just after air-drying

Compound | mortality at 100 ppm [1, 4] | mortality at 100 ppm [1, 5] | Inhibitory ratio of emergence [2] | mortality at 3.5 ppm [2] | Degree of damage [3]
CCC(C)c1ccccc1OC(=O)NC (centres unmarked) [(C), BPMC, reference compound] | 6% | 100% |  |  | 
C=CC(C)(CCCc1ccc(F)c(Oc2ccccc2)c1)c1ccc(OCC)cc1 (centres unmarked) [(2), 3-(4-Ethoxyphenyl)-3-methyl-6-(3-phenoxy-4-fluorophenyl)-1-hexene] | 100% | 100% | A (90% or more) | > 90% | -
C=CC(C)(CCCc1cccc(Oc2ccccc2)c1)c1ccc(OCC)cc1 (centres unmarked) [(1), 3-(4-ethoxyphenyl)-3-methyl-6-(3-phenoxyphenyl)-1-hexene] | 100% | 100% | A (90% or more) | > 90% | - ~ +
C#CC(C)(CCCc1ccc(F)c(Oc2ccccc2)c1)c1ccc(CC)cc1 (centres unmarked) [(39), 3-(4-Ethylphenyl)-3-methyl-6-(3-phenoxy-4-fluorophenyl)-1-hexyne] |  |  | A (90% or more) | > 90% | - ~ +
C#CC(C)(CCCc1ccc(F)c(Oc2ccccc2)c1)c1ccc(OCC=C)cc1 (centres unmarked) [(8), 3-(4-Allyloxyphenyl)-3-methyl-6-(3-phenoxy-4-fluorophenyl)-1-hexyne] |  |  | A (90% or more) | > 90% | -
C#CC(C)(CCCc1cccc(Oc2ccccc2)c1)c1ccc(OCC=C)cc1 (centres unmarked) [(7), 3-(4-allyloxyphenyl)-3-methyl-6-(3-phenoxyphenyl)-1-hexyne] | 93% | 100% | A (90% or more) | 10 to 90% | -
C#CC(CCCc1ccc(F)c(Oc2ccccc2)c1)c1ccc(OCC)cc1 (centres unmarked) [(43), 3-(4-Ethoxyphenyl)-6-(3-phenoxy-4-fluorophenyl)-1-hexyne] |  |  | A (90% or more) | > 90% | - ~ +
C#CC(C)(CCCc1cccc(Oc2ccccc2)c1)c1ccc(Cl)cc1 (centres unmarked) [(25), 3-(4-Chlorophenyl)-3-methyl-6-(3-phenoxyphenyl)-1-hexyne] |  |  | A (90% or more) | > 90% | -
C#CC(C)(CCCc1ccc(F)c(Oc2ccccc2)c1)c1ccc(OCC)c(Cl)c1 (centres unmarked) [(11), 3-(3-Chloro-4-ethoxyphenyl)-3-methyl-6-(3-phenoxy-4-fluorophenyl)-1-hexyne] |  |  | A (90% or more) | > 90% | -
CCOc1ccc(C(C)(C)COCc2cccc(Oc3ccccc3)c2)cc1 [(B), reference compound] | 65% | 100% |  |  | + ~ ++
C#CC(C)(CCCc1ccc(F)c(Oc2ccccc2)c1)c1ccc(OC(F)F)cc1 (centres unmarked) [(6), 3-(4-Difluoromethoxyphenyl)-3-methyl-6-(3-phenoxy-4-fluorophenyl)-1-hexyne] |  |  | A (90% or more) | > 90% | -
C#CC(C)(CCCc1cccc(Oc2ccccc2)c1)c1ccc(OC(F)F)cc1 (centres unmarked) [(17), 3-(4-difluoromethoxyphenyl)-3-methyl-6-(3-phenoxyphenyl)-1-hexyne] |  |  | A (90% or more) | > 90% | -
C#CC(C)(CCCc1ccc(F)c(Oc2ccccc2)c1)c1ccc(Cl)cc1 (centres unmarked) [(10), 3-(4-Chlorophenyl)-3-methyl-6-(3-phenoxy-4-fluorophenyl)-1-hexyne] |  |  | A (90% or more) | > 90% | -
